Numbered stars: 1 amine (or outer) side, 2 acyl side, 3 side chain; on linkers, the order of the positions; unused ones are H or OH. Bridge positions count the residues as written; N and C are the ends. Square brackets hold non-standard residues; d marks the D form. Peptide text beside a SMILES is read from it. * marks the point of attachment. C20 diacid = O=C(O)CCCCCCCCCCCCCCCCCCC(=O)*; γGlu = O=C(O)[C@H](CCC(=O)[*:2])N[*:1]; Hyp = O=C(O)[C@@H]1C[C@@H](O)CN1; NMeI = CC[C@H](C)[C@H](NC)C(=O)O; Aad = N[C@@H](CCCC(=O)O)C(=O)O; Orn = NCCC[C@H](N)C(=O)O; Sar = CNCC(=O)O
Tests used:
[1] = molecular target: T1, recombinant human calcitonin receptor (hCT-R) (Homo sapiens, UniProt P30988); assay: hCT-R cAMP assay (AlphaScreen) in 1321N1 cells; type: cell-based; conditions: cAMP formation, 45 min stimulation
T1 construct: host or cells: human astrocytoma cell line 1321N1
T1 sequence (P30988 25-474): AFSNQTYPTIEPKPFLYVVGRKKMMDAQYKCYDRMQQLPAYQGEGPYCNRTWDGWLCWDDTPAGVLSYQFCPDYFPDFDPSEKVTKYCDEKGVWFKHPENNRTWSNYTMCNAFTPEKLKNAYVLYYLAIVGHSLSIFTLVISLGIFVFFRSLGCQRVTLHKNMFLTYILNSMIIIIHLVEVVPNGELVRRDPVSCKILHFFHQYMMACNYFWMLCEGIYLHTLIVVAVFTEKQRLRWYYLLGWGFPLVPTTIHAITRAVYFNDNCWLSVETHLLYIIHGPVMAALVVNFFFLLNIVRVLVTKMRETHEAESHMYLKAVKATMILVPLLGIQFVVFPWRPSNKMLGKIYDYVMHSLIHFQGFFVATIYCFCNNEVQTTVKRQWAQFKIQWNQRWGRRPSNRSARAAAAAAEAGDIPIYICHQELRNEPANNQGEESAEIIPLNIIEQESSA
Procedure, shortened: (§1)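 1321N1 astrocytoma cells expressing recombinant human calcitonin receptor alone or with RAMP3 (AMY3) stimulated 45 min at room temperature with peptide in IBMX-containing buffer. cAMP quantified by AlphaScreen after 1 h bead incubation; EC50 fitted from at least 7 concentrations.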

[2] = molecular target: T2, recombinant human amylin 3 receptor (hAMYR3) (Homo sapiens, UniProt O60896+P30988); assay: hAMYR3 cAMP assay (AlphaScreen) in 1321N1 cells; type: cell-based; conditions: cAMP formation, 45 min stimulation
T2 construct: host or cells: human astrocytoma cell line 1321N1
T2 sequence (P30988 25-474): T1 sequence (P30988 25-474)
T2 sequence (O60896 24-148 partner): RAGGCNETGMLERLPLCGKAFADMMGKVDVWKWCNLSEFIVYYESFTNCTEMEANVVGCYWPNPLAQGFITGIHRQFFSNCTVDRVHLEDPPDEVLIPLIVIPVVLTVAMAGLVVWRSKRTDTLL
Procedure, shortened: as §1

[3] = Assessment of physical stability: fibril formation by Thioflavin T fluorescence; type: physicochemical; parameters: key: FND = fibrillation not detected; FD = fibrillation detected; conditions: 1 mg/mL peptide; for Fibrillation (in buffer) pH4 acetate: 50 mM acetate buffer pH 4.0, 96 hours at 40° C.; for Fibrillation (in buffer) pH7 histidine: 50 mM histidine buffer pH 7.0, 96 hours at 40° C.; for Fibrillation (in buffer) pH7 phosphate: 50 mM phosphate buffer pH 7.0, 96 hours at 40° C.
Protocol: Solutions containing (i) 1 mg/mL of test peptide, 40 μM ThT and 50 mM phosphate (Ph) buffer (pH 7.0), (ii) 1 mg/mL of test peptide, 40 μM ThT and 50 mM histidine (His) buffer (pH 7.0), and (iii) 1 mg/mL of test peptide, 40 μM ThT and 50 mM acetate (Ac) buffer (pH 4.0), were loaded in a 96-well black fluorescence plate (clear bottom) in triplicate. Data were collected at fixed intervals of 10 min, each preceded by 300 s of automixing (agitation), over a period of 96 hours at 40° C. Physical stability is determined by measuring the fluorescence intensity over time. A significant increase in intensity is rated as fibrillation detected (FD).

[4] = Assessment of chemical stability in 40 mM buffers at 40° C. (RP-HPLC); type: physicochemical; conditions: 1 mg/mL; for % degradation after 72 h at 40° C. pH4 acetate: acetate buffer pH 4, 72 h; for % degradation after 72 h at 40° C. pH6 phosphate: phosphate buffer pH 6, 72 h; for % degradation after 72 h at 40° C. pH7 phosphate: phosphate buffer pH 7, 72 h; for % degradation after 14 days at 40° C. pH4 acetate: acetate buffer pH 4, 14 days; for % degradation after 14 days at 40° C. pH6 phosphate: phosphate buffer pH 6, 14 days; for % degradation after 14 days at 40° C. pH7 phosphate: phosphate buffer pH 7, 14 days
Procedure, shortened: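 Peptides at 1 mg/mL in 40 mM acetate pH 4 or phosphate pH 6 and 7 were held at 40° C for 3 and 14 days. Main-peak area-% by C8 RP-HPLC, UV 220 nm; % degradation = change in main-peak area-% versus t=0.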

SMILES	EC50 [1]	EC50 [2]	Fibrillation (in buffer) pH4 acetate [3]	Fibrillation (in buffer) pH7 histidine [3]	Fibrillation (in buffer) pH7 phosphate [3]	% degradation after 72 h at 40° C. pH4 acetate [4]	% degradation after 72 h at 40° C. pH6 phosphate [4]	% degradation after 72 h at 40° C. pH7 phosphate [4]	% degradation after 14 days at 40° C. pH4 acetate [4]	% degradation after 14 days at 40° C. pH6 phosphate [4]	% degradation after 14 days at 40° C. pH7 phosphate [4]
CC[C@H](C)[C@@H](C(=O)N[C@@H](CC(C)C)C(=O)N[C@@H](CO)C(=O)N[C@@H](CO)C(=O)N[C@H](C(=O)N[C@@H](CCC(=O)O)C(=O)N[C@H](C(=O)NCC(=O)N[C@@H](CO)C(=O)N[C@@H](CC(N)=O)C(=O)N[C@H](C(=O)N1C[C@H](O)C[C@H]1C(N)=O)[C@@H](C)O)C(C)C)[C@@H](C)O)N(C)C(=O)[C@H](C)NC(=O)CN(C)C(=O)[C@H](Cc1ccccc1)NC(=O)[C@H](CO)NC(=O)[C@H](CO)NC(=O)[C@H](CCCNC(=N)N)NC(=O)[C@H](CCC(N)=O)NC(=O)[C@H](CC(C)C)NC(=O)[C@H](Cc1ccccc1)NC(=O)[C@H](Cc1c[nH]cn1)NC(=O)[C@H](C)NC(=O)[C@H](CC(C)C)NC(=O)[C@H](CCCNC(=N)N)NC(=O)[C@H](CCC(N)=O)NC(=O)[C@@H](NC(=O)[C@H](C)NC(=O)[C@@H]1CCCNC(=O)C[C@H](NC(=O)[C@H](CCCNC(=N)N)NC(=O)CC[C@H](NC(=O)CCCCCCCCCCCCCCCCCCC(=O)O)C(=O)O)C(=O)NCC(=O)N[C@@H]([C@@H](C)O)C(=O)N[C@@H](C)C(=O)N[C@@H]([C@@H](C)O)C(=O)N1)[C@@H](C)O [Compound 8, [19CD]-isoGlu-RD()GTAT-Orn()-ATQRLAHFLQRSSF-Gly(Me)-A-Ile(Me)-LSSTEVGSNT-Hyp-NH2] ({C20 diacid-γGlu}-RDGTAT[Orn]ATQRLAHFLQRSSF[Sar]A[NMeI]LSSTEVGSNT[Hyp]-NH2; lactam 2-7)	0.129 nM	0.059 nM	FND	FND	FND	<1%	<1%	<1%	–	–	–
CC[C@H](C)[C@@H](C(=O)N[C@@H](CC(C)C)C(=O)N[C@@H](CO)C(=O)N[C@@H](CO)C(=O)N[C@H](C(=O)N[C@@H](CCC(=O)O)C(=O)N[C@H](C(=O)NCC(=O)N[C@@H](CO)C(=O)N[C@@H](CC(N)=O)C(=O)N[C@H](C(=O)N1C[C@H](O)C[C@H]1C(N)=O)[C@@H](C)O)C(C)C)[C@@H](C)O)N(C)C(=O)[C@H](C)NC(=O)CN(C)C(=O)[C@H](Cc1ccccc1)NC(=O)CNC(=O)CNC(=O)[C@H](CCCNC(=N)N)NC(=O)[C@H](CCC(N)=O)NC(=O)[C@H](CC(C)C)NC(=O)[C@H](Cc1ccccc1)NC(=O)[C@H](CCCC(=O)O)NC(=O)[C@H](C)NC(=O)[C@H](CC(C)C)NC(=O)[C@H](CCCNC(=N)N)NC(=O)[C@H](CCC(=O)O)NC(=O)[C@@H](NC(=O)[C@H](C)NC(=O)[C@@H]1CCCCNC(=O)C[C@H](NC(=O)[C@H](CCCNC(=N)N)NC(=O)CC[C@H](NC(=O)CCCCCCCCCCCCCCCCCCC(=O)O)C(=O)O)C(=O)NCC(=O)N[C@@H]([C@@H](C)O)C(=O)N[C@@H](C)C(=O)N[C@@H]([C@@H](C)O)C(=O)N1)[C@@H](C)O [Compound 32, [19CD]-isoGlu-RD()GTATK()ATERLA-Aad-FLQRGGF-Gly(Me)-A-Ile(Me)-LSSTEVGSNT-Hyp-NH2] ({C20 diacid-γGlu}-RDGTATKATERLA[Aad]FLQRGGF[Sar]A[NMeI]LSSTEVGSNT[Hyp]-NH2; lactam 2-7)	0.006 nM	0.005 nM	FD	FND	FND	1.3%	<1%	2.2%	<1%	<1%	<1%
CC[C@H](C)[C@@H](C(=O)N[C@@H](CC(C)C)C(=O)N[C@@H](CO)C(=O)N[C@@H](CO)C(=O)N[C@H](C(=O)N[C@@H](CCC(=O)O)C(=O)N[C@H](C(=O)NCC(=O)N[C@@H](CO)C(=O)N[C@@H](CC(N)=O)C(=O)N[C@H](C(=O)N1C[C@H](O)C[C@H]1C(N)=O)[C@@H](C)O)C(C)C)[C@@H](C)O)N(C)C(=O)[C@H](C)NC(=O)CN(C)C(=O)[C@H](Cc1ccccc1)NC(=O)[C@H](CC(N)=O)NC(=O)[C@H](C)NC(=O)[C@H](CCCNC(=N)N)NC(=O)[C@H](CCC(N)=O)NC(=O)[C@H](CC(C)C)NC(=O)[C@H](Cc1ccccc1)NC(=O)[C@H](CCCC(=O)O)NC(=O)[C@H](C)NC(=O)[C@H](CC(C)C)NC(=O)[C@H](CCCNC(=N)N)NC(=O)[C@H](CCC(=O)O)NC(=O)[C@@H](NC(=O)[C@H](C)NC(=O)[C@@H]1CCCCNC(=O)C[C@H](NC(=O)[C@H](CCCNC(=N)N)NC(=O)CC[C@H](NC(=O)CCCCCCCCCCCCCCCCCCC(=O)O)C(=O)O)C(=O)NCC(=O)N[C@@H]([C@@H](C)O)C(=O)N[C@@H](C)C(=O)N[C@@H]([C@@H](C)O)C(=O)N1)[C@@H](C)O [Compound 33, [19CD]-isoGlu-RD()GTATK()ATERLA-Aad-FLQRANF-Gly(Me)-A-Ile(Me)-LSSTEVGSNT-Hyp-NH2] ({C20 diacid-γGlu}-RDGTATKATERLA[Aad]FLQRANF[Sar]A[NMeI]LSSTEVGSNT[Hyp]-NH2; lactam 2-7)	0.019 nM	0.009 nM	FND	FND	FND	<1%	1%	<1%	–	–	–
CC[C@H](C)[C@@H](C(=O)N[C@@H](CC(C)C)C(=O)N[C@@H](CO)C(=O)N[C@@H](CO)C(=O)N[C@H](C(=O)N[C@@H](CCC(=O)O)C(=O)N[C@H](C(=O)NCC(=O)N[C@@H](CO)C(=O)N[C@@H](CC(N)=O)C(=O)N[C@H](C(=O)N1C[C@H](O)C[C@H]1C(N)=O)[C@@H](C)O)C(C)C)[C@@H](C)O)N(C)C(=O)[C@H](C)NC(=O)CN(C)C(=O)[C@H](Cc1ccccc1)NC(=O)[C@H](CO)NC(=O)[C@H](CO)NC(=O)[C@H](CCCNC(=N)N)NC(=O)[C@H](CCC(N)=O)NC(=O)[C@H](CC(C)C)NC(=O)[C@H](Cc1ccccc1)NC(=O)[C@H](CCCC(=O)O)NC(=O)[C@H](C)NC(=O)[C@H](CC(C)C)NC(=O)[C@H](CCCNC(=N)N)NC(=O)[C@H](CCC(=O)O)NC(=O)[C@@H](NC(=O)[C@H](C)NC(=O)[C@@H]1CSSC[C@H](NC(=O)[C@H](CCCNC(=N)N)NC(=O)CC[C@H](NC(=O)CCCCCCCCCCCCCCCCCCC(=O)O)C(=O)O)C(=O)NCC(=O)N[C@@H]([C@@H](C)O)C(=O)N[C@@H](C)C(=O)N[C@@H]([C@@H](C)O)C(=O)N1)[C@@H](C)O [Ref. 4, [19CD]-isoGlu-RC()GTATC()ATERLA-Aad-FLQRSSF-Sar-A-Ile(Me)-LSSTEVGSNT-Hyp-NH2, reference compound] ({C20 diacid-γGlu}-RCGTATCATERLA[Aad]FLQRSSF[Sar]A[NMeI]LSSTEVGSNT[Hyp]-NH2; disulfide 2-7)	0.075 nM	0.031 nM	FND	FND	FND	–	–	–	3.2%	12.6%	20.3%
